{
  "source": "patent US7482489B2",
  "about": "“Enantiomerically pure (R)-albuterol dibenzoyltartrate and protected analogs thereof” (Teva Pharmaceutical Fine Chemicals S.r.l., priority 2004, dated 2009)",
  "type_in_all_cases": "physicochemical",
  "key": {"[1]": {"assay": "Stability comparison of sample at 40° C. and 75% RH (HPLC area %)", "protocol": "Yields were determined by mass. Chemical purity was determined by HPLC. The HPLC analysis was conducted using a column POLARIS C18-A 250 mm×4.6 mm×[…] (cat n.2002-250×046) and a mobile phase. The mobile phase comprised a phosphate buffer at pH 3.00 and acetonitrile in a gradient. The eluent flow was 1.0 ml/min. The detector was set to a wavelength of 230 nm, using an HPLC Hewlett Packard VWD detector HP 1100, as a detector.\nUsing the products of the previous examples, a stability study at 40° C. and 75% RH was carried out."}, "[2]": {"assay": "Stability of levalbuterol hydrochloride at 70° C. (HPLC area %, appearance)", "protocol": "[table] […] At lower pH values, greater levalbuterol hydrochloride degradation occurred. […] Yields were determined by mass. Chemical purity was determined by HPLC. […] The mobile phase comprised a phosphate buffer at pH 3.00 and acetonitrile in a gradient. The eluent flow was 1.0 ml/min. The detector was set to a wavelength of 230 nm, using an HPLC Hewlett Packard VWD detector HP 1100, as a detector."}, "[3]": {"assay": "Stability of levalbuterol hydrochloride at different storage temperatures (HPLC area %)", "protocol": "At lower pH values, greater levalbuterol hydrochloride degradation occurred. […] [table] […] The percentage LVB, Compound B, or Compound A is relative to the total amount of sample at time=T. Yields were determined by mass. Chemical purity was determined by HPLC. […] The mobile phase comprised a phosphate buffer at pH 3.00 and acetonitrile in a gradient. The eluent flow was 1.0 ml/min. The detector was set to a wavelength of 230 nm, using an HPLC Hewlett Packard VWD detector HP 1100, as a detector."}, "[4]": {"details": "3 months at 40° C. and 75% RH, Hydrochloride"}, "[5]": {"details": "6 months at 40° C. and 75% RH, Hydrochloride"}, "[6]": {"details": "T = 0, 40° C. and 75% RH study, Hydrochloride"}, "[7]": {"details": "1 week at 70° C., Hydrochloride"}, "[8]": {"details": "T = 0, before storage at 70° C., Hydrochloride"}},
  "note": "Counter-ions that a name gives are not always drawn.",
  "data": [
    {"smiles": "CC(C)(C)NC[C@H](O)c1ccc(O)c(CO)c1", "note": "[Example 8, Levalbuterol Hydrochloride]", "values": [
      {"measurement": "Comp. A", "setting": "[1]; [4]", "value": 0.03, "unit": "%"},
      {"measurement": "Comp. B", "setting": "[1]; [4]", "value": 0.07, "unit": "%"},
      {"measurement": "LVB", "setting": "[1]; [4]", "value": 99.85, "unit": "%"},
      {"measurement": "Total Unknown Impurities", "setting": "[1]; [4]", "value": 0.05, "unit": "%"},
      {"measurement": "Total Unknown Impurities", "setting": "[1]; 6 months at 40° C. and 75% RH", "value": 0.09, "unit": "%"},
      {"measurement": "Comp. A", "setting": "[1]; [5]", "value": 0.03, "unit": "%"},
      {"measurement": "Comp. B", "setting": "[1]; [5]", "value": 0.07, "unit": "%"},
      {"measurement": "LVB", "setting": "[1]; [5]", "value": 98.81, "unit": "%"},
      {"measurement": "Comp. A", "setting": "[1]; [6]", "value": 0.01, "unit": "%"},
      {"measurement": "Comp. B", "setting": "[1]; [6]", "value": 0.03, "unit": "%"},
      {"measurement": "LVB", "setting": "[1]; [6]", "value": 99.87, "unit": "%"},
      {"measurement": "Total Unknown Impurities", "setting": "[1]; [6]", "value": 0.09, "unit": "%"}
    ]},
    {"smiles": "CC(C)(C)NC[C@H](O)c1ccc(O)c(CO)c1", "note": "[Example 12, Levalbuterol Hydrochloride]", "values": [
      {"measurement": "Comp. A", "setting": "[1]; [4]", "value": 0.02, "unit": "%"},
      {"measurement": "Comp. B", "setting": "[1]; [4]", "value": 0.06, "unit": "%"},
      {"measurement": "LVB", "setting": "[1]; [4]", "value": 99.85, "unit": "%"},
      {"measurement": "Total Unknown Impurities", "setting": "[1]; [4]", "value": 0.07, "unit": "%"},
      {"measurement": "Total Unknown Impurities", "setting": "[1]; 6 months at 40° C. and 75% RH", "value": 0.09, "unit": "%"},
      {"measurement": "Comp. A", "setting": "[1]; [5]", "value": 0.02, "unit": "%"},
      {"measurement": "Comp. B", "setting": "[1]; [5]", "value": 0.06, "unit": "%"},
      {"measurement": "LVB", "setting": "[1]; [5]", "value": 99.83, "unit": "%"},
      {"measurement": "Comp. A", "setting": "[1]; [6]", "value": 0.02, "unit": "%"},
      {"measurement": "Comp. B", "setting": "[1]; [6]", "value": 0.01, "unit": "%"},
      {"measurement": "LVB", "setting": "[1]; [6]", "value": 99.91, "unit": "%"},
      {"measurement": "Total Unknown Impurities", "setting": "[1]; [6]", "value": 0.06, "unit": "%"}
    ]},
    {"smiles": "CC(C)(C)NC[C@H](O)c1ccc(O)c(CO)c1", "note": "[Example 16, Levalbuterol Hydrochloride]", "values": [
      {"measurement": "Comp. C", "setting": "[1]; 3 months at 40° C. and 75% RH", "value": 0.04, "unit": "%"},
      {"measurement": "Comp. A", "setting": "[1]; [4]", "value": 0.06, "unit": "%"},
      {"measurement": "Comp. B", "setting": "[1]; [4]", "value": 0.09, "unit": "%"},
      {"measurement": "LVB", "setting": "[1]; [4]", "value": 99.75, "unit": "%"},
      {"measurement": "Total Unknown Impurities", "setting": "[1]; [4]", "value": 0.08, "unit": "%"},
      {"measurement": "Comp. C", "setting": "[1]; 6 months at 40° C. and 75% RH", "value": 0.05, "unit": "%"},
      {"measurement": "Comp. A", "setting": "[1]; [5]", "value": 0.07, "unit": "%"},
      {"measurement": "Comp. B", "setting": "[1]; [5]", "value": 0.13, "unit": "%"},
      {"measurement": "LVB", "setting": "[1]; [5]", "value": 99.72, "unit": "%"},
      {"measurement": "Comp. A", "setting": "[1]; [6]", "value": 0.01, "unit": "%"},
      {"measurement": "Comp. B", "setting": "[1]; [6]", "value": 0.02, "unit": "%"},
      {"measurement": "LVB", "setting": "[1]; [6]", "value": 99.86, "unit": "%"},
      {"measurement": "Total Unknown Impurities", "setting": "[1]; [6]", "value": 0.11, "unit": "%"}
    ]},
    {"smiles": "CC(C)(C)NC[C@H](O)c1ccc(O)c(CO)c1", "note": "[Example 21, Levalbuterol Hydrochloride]", "values": [
      {"measurement": "Compound A", "setting": "[2]; [7]", "value": 0.72, "unit": "%"},
      {"measurement": "Compound B", "setting": "[2]; [7]", "value": 0.26, "unit": "%"},
      {"measurement": "Compound C", "setting": "[2]; [7]", "value": 0.18, "unit": "%"},
      {"measurement": "LVB (levalbuterol hydrochloride)", "setting": "[2]; [7]", "value": 97.1, "unit": "%"},
      {"measurement": "Sample (appearance)", "setting": "[2]; [7]", "value": "Pale yellow"},
      {"measurement": "Total Unknown Impurities", "setting": "[2]; [7]", "value": 1.21, "unit": "%"},
      {"measurement": "Compound C", "setting": "[2]; T = 0, before storage at 70° C.", "value": 0.15, "unit": "%"},
      {"measurement": "Compound A", "setting": "[2]; [8]", "value": 0.24, "unit": "%"},
      {"measurement": "Compound B", "setting": "[2]; [8]", "value": 0.18, "unit": "%"},
      {"measurement": "LVB (levalbuterol hydrochloride)", "setting": "[2]; [8]", "value": 99.4, "unit": "%"},
      {"measurement": "Sample (appearance)", "setting": "[2]; [8]", "value": "White solid^c"}
    ]},
    {"smiles": "CC(C)(C)NC[C@H](O)c1ccc(O)c(CO)c1", "note": "[levalbuterol hydrochloride, (R)-α^1-[[(1,1-dimethylethyl)amino]methyl]-4-hydroxy-1,3-benzenedimethanol hydrochloride]", "values": [
      {"measurement": "Sample (appearance)", "setting": "[2]; [8]", "value": "White solid"},
      {"measurement": "Compound A", "setting": "[3]; 1 month, 25° C.", "value": 0.03, "unit": "%"},
      {"measurement": "Compound B", "setting": "[3]; 1 month, 25° C.", "value": 0.02, "unit": "%"},
      {"measurement": "LVB", "setting": "[3]; 1 month, 25° C.", "value": 99.87, "unit": "%"},
      {"measurement": "Total Unknown Impurities", "setting": "[3]; 1 month, 25° C.", "value": 0.08, "unit": "%"},
      {"measurement": "Compound A", "setting": "[3]; 2 months, 25° C.", "value": 0.04, "unit": "%"},
      {"measurement": "Compound B", "setting": "[3]; 2 months, 25° C.", "value": 0.02, "unit": "%"},
      {"measurement": "LVB", "setting": "[3]; 2 months, 25° C.", "value": 99.82, "unit": "%"},
      {"measurement": "Total Unknown Impurities", "setting": "[3]; 2 months, 25° C.", "value": 0.12, "unit": "%"},
      {"measurement": "Compound A", "setting": "[3]; 20 hrs, 40-45° C.", "value": 0.11, "unit": "%"},
      {"measurement": "Compound B", "setting": "[3]; 20 hrs, 40-45° C.", "value": 0.30, "unit": "%"},
      {"measurement": "LVB", "setting": "[3]; 20 hrs, 40-45° C.", "value": 99.30, "unit": "%"},
      {"measurement": "Total Unknown Impurities", "setting": "[3]; 20 hrs, 40-45° C.", "value": 0.29, "unit": "%"},
      {"measurement": "Compound A", "setting": "[3]; 20 hrs, 55-60° C.", "value": 0.23, "unit": "%"},
      {"measurement": "Compound B", "setting": "[3]; 20 hrs, 55-60° C.", "value": 0.45, "unit": "%"},
      {"measurement": "LVB", "setting": "[3]; 20 hrs, 55-60° C.", "value": 98.17, "unit": "%"},
      {"measurement": "Total Unknown Impurities", "setting": "[3]; 20 hrs, 55-60° C.", "value": 1.15, "unit": "%"},
      {"measurement": "Compound A", "setting": "[3]; 32 hrs, 55-60° C.", "value": 0.26, "unit": "%"},
      {"measurement": "Compound B", "setting": "[3]; 32 hrs, 55-60° C.", "value": 0.45, "unit": "%"},
      {"measurement": "LVB", "setting": "[3]; 32 hrs, 55-60° C.", "value": 97.9, "unit": "%"},
      {"measurement": "Total Unknown Impurities", "setting": "[3]; 32 hrs, 55-60° C.", "value": 1.39, "unit": "%"},
      {"measurement": "Compound A", "setting": "[3]; 10 days, 25° C.", "value": 0.02, "unit": "%"},
      {"measurement": "Compound B", "setting": "[3]; 10 days, 25° C.", "value": 0.01, "unit": "%"},
      {"measurement": "LVB", "setting": "[3]; 10 days, 25° C.", "value": 99.88, "unit": "%"},
      {"measurement": "Total Unknown Impurities", "setting": "[3]; 10 days, 25° C.", "value": 0.09, "unit": "%"},
      {"measurement": "Compound A", "setting": "[3]; T = 0, 20° C., MeOH 6700 ppm", "value": 0.028, "unit": "%"},
      {"measurement": "Compound B", "setting": "[3]; T = 0, 20° C., MeOH 6700 ppm", "value": 0.035, "unit": "%"},
      {"measurement": "LVB", "setting": "[3]; T = 0, 20° C., MeOH 6700 ppm", "value": 99.84, "unit": "%"},
      {"measurement": "Total Unknown Impurities", "setting": "[3]; T = 0, 20° C., MeOH 6700 ppm", "value": 0.097, "unit": "%"},
      {"measurement": "Compound A", "setting": "[3]; T = 0, 25° C., MeOH 2090 ppm", "value": 0.02, "unit": "%"},
      {"measurement": "Compound B", "setting": "[3]; T = 0, 25° C., MeOH 2090 ppm", "value": 0.01, "unit": "%"},
      {"measurement": "LVB", "setting": "[3]; T = 0, 25° C., MeOH 2090 ppm", "value": 99.90, "unit": "%"},
      {"measurement": "Total Unknown Impurities", "setting": "[3]; T = 0, 25° C., MeOH 2090 ppm", "value": 0.07, "unit": "%"}
    ]}
  ]
}
